Results: US4102886A, “Process for the preparation of benzo(a)quinolizidine derivatives” (priority 1974, dated 1978)
Like-named read-outs stand apart in the source and are kept apart here.

Legend:
[1] = Inhibition of kaolin-induced oedema; type: in vivo; details: in vivo; LD50/ED50; read-out: Therapeutical index LD50/ED50, kaolin-oedema
Method: (§1) Inhibition of Kaolin- and carrageenin-induced oedema
(§2) The tests were carried out on groups each consisting of at least 10 animals. The percentage inhibition of oedema, in relation to the untreated controls, was determined for each of the animals, and the average values were calculated.

kaolin-induced oedema = assay: Inhibition of kaolin-induced oedema; type: in vivo; details: 2 hours
Method: as §1, §2

[2] = Inhibition of carrageenin-induced oedema; type: in vivo; details: in vivo; LD50/ED50; read-out: Therapeutical index LD50/ED50, carrageenin-oedema
Method: as §1, §2

[3] = system: carrageenin-induced oedema; assay: Inhibition of carrageenin-induced oedema; type: in vivo; details: 1.5 hours
Method: as §1, §2

[4] = system: serotonine-induced oedema; assay: Tests performed on serotonine-induced oedema; type: in vivo
Method: Tests performed on serotonine-induced oedema
The tests were carried out on groups each consisting of 10 animals. The percentage inhibition of oedema, in relation to the untreated controls, was determined for each of the animals. The data listed in Table 3 are the averages of the inhibition values.

[5] = Analgesic effect by the hot-plate test; type: in vivo; details: 50 mg./kg. p.o.
rats = assay: Acute toxicity tests; type: in vivo; details: p.o., Litchfield-Wildoxon method
Method: (§3) The acute toxicity values of the compounds were determined on rats, after oral administration. The LD50 values were calculated according to the Litchfield-Wildoxon method.

[6] = Determination of ulcer index
Cotton granuloma = Cotton granuloma test; type: in vivo; details: 50 mg./kg.
[7] = system: experimentally provoked fever; assay: Antipyretic activity (experimentally provoked fever); type: in vivo; set-up: unit not given here
Description: Besides their antiphlogistic activities, some of the benzo(a)quinolizidine derivatives exert antipyretic effects as well. On the basis of the tests performed on experimentally provoked fever, the antipyretic activities of the compounds according to the invention surpass the effect of amidazophenum.

[8] = Analgesic effect by the writhing test; type: in vivo; details: 100 mg./kg. p.o.
Acute toxicity tests = type: in vivo; details: rat, in vivo, po; rats, Litchfield-Wildoxon method
Method: as §3

[9] = in vivo

In the case of `COc1ccc2c(c1)c(CC(=O)O)c(C)n2C(=O)c1ccc(Cl)cc1` [Indomethacine, reference compound], the selectivity ratio [1] was 2.3, the “Inhibition of kaolin-induced oedema 2 hours after administration” value (kaolin-induced oedema; 10 mg./kg. p.o.) was 27.2% and the selectivity ratio [2] was 1.3. For the same molecule, the “Inhibition of carrageenin-induced oedema 1.5 hours after administration” value ([3]; 10 mg./kg. p.o.) was 26.7%, the “Percentage inhibition 1 hour after administration (serotonine-induced oedema)” value ([4]; 25 mg./kg. p.o.) was 1.4% and the “Prolongation of the reaction time, % (2 hours after administration)” value [5] was “no evaluable effect can be”. For the same molecule, the LD50 (rats) was 12 mg/kg, the Erosion ([6]; female) was 1/10 and the Ulcer ([6]; female) was 3/10. The ulcerogeneous effect ([6]; in words) was “marked ulcerogeneous effect”, the Erosion ([6]; male) was 1/10 and the Ulcer ([6]; male) was 3/10.

With `CCCCC1C(=O)N(c2ccccc2)N(c2ccccc2)C1=O` [Phenylbutazone] the “Inhibition of kaolin-induced oedema 2 hours after administration” value (kaolin-induced oedema; 50 mg./kg. p.o.) was 27.5%, the “Inhibition of carrageenin-induced oedema 1.5 hours after administration” value ([3]; 50 mg./kg. p.o.) was 24.3% and the “Effect, % (cotton granuloma test)” value (Cotton granuloma) was 19.6%. For the same molecule, the “Percentage inhibition 1 hour after administration (serotonine-induced oedema)” value ([4]; 100 mg./kg. p.o.) was 10.2%, the “Variation of body temperature” value ([7]; 25 mg./kg. p.o., 1 hour after administration) was -0.82 and the “Variation of body temperature” value ([7]; 25 mg./kg. p.o., 2 hours after administration) was -0.84. The “Variation of body temperature” value ([7]; 25 mg./kg. p.o., 3 hours after administration) was -0.73, the “Variation of body temperature” value ([7]; 50 mg./kg. p.o., 1 hour after administration) was -1.05 and the “Variation of body temperature” value ([7]; 50 mg./kg. p.o., 2 hours after administration) was -1.07. For the same molecule, the “Variation of body temperature” value ([7]; 50 mg./kg. p.o., 3 hours after administration) was -0.76, the “Prolongation of the reaction time, % (2 hours after administration)” value [5] was “no evaluable effect can be” and the “Activity, % (reduction of the number of writhings in relation to the controls)” value [8] was 17.6%. The LD50 (Acute toxicity tests) was 1180 mg/kg and the Erosion [9] was 0/10.
